Reference: patent US9017692B2, “Antimicrobial agent, bacterial strain, biosynthesis, and methods of use” (priority 2011, dated 2015)

What was measured:
[1] = system: E. coli O157:H7 ATCC 43889; experiment: Spot-on-lawn antimicrobial activity; format: cell-based, Escherichia coli; settings: broth medium LB
Protocol: (§1) Spot-on-lawn method [He, Z., et al., Appl. Environ. Microbiol., (2007) 73:168-178] was used for the bioassay of antimicrobial activity. Bacterial indicators were incubated at 37° C. for 24 h, except Pseudomonas putida, Clostridium difficile and methycillin resistant Staphylococcus aureus which were incubated for 48 h (Table 1). The indicator overlay was prepared by pouring 10 ml soft agar (seeded with 10 μL indicator culture) onto tryptose agar as basal medium in a petri dish. Purified antimicrobials were two-fold serially diluted and aliquots (10 μL each) were spotted onto the soft agar. The plates were incubated overnight and inspected for the presence of growth inhibition zones. Antimicrobial activity was expressed in arbitrary units (AU)/mL; this value is the reciprocal of the highest dilution displaying a zone of inhibition corresponding to 1 mL of the non-diluted antimicrobial preparation.
(§2) Purified paenibacterin was used for the antimicrobial spectrum test. Microorganisms tested for sensitivity to this compound included pathogenic (e.g., Salmonella Typhimurium, Escherichia coli O157:H7, Listeria monocytogenes, and Staphylococcus aureus) and non-pathogenic (e.g., Escherichia coli K-12, Pseudomonas putida, and Enterococcus faecalis) bacteria (Table 1).

[2] = system: E. coli O157:H7 EDL 933; experiment: Spot-on-lawn antimicrobial activity; format: cell-based, Escherichia coli; settings: broth medium LB
Protocol: as §1, §2

[3] = system: B. cereus ATCC 11178; experiment: Spot-on-lawn antimicrobial activity; format: cell-based, Bacillus cereus; settings: TSBYE
Protocol: as §1, §2

[4] = system: C. difficile CL148; experiment: Spot-on-lawn antimicrobial activity; format: cell-based, Clostridium difficile; settings: BHIYE
Protocol: as §1, §2

[5] = system: Bacillus cereus ATCC 14579; experiment: Spot-on-lawn antimicrobial activity; format: cell-based; settings: TSBYE
Protocol: as §1, §2

[6] = system: Clostridium difficile A515; experiment: Spot-on-lawn antimicrobial activity; format: cell-based; settings: BHIYE
Protocol: as §1, §2

[7] = system: Enterococcus faecalis ATCC 29212; experiment: Spot-on-lawn antimicrobial activity; format: cell-based; settings: MRS
Protocol: as §1, §2

[8] = system: L. lactis ATCC 11454; experiment: Spot-on-lawn antimicrobial activity; format: cell-based; settings: MRS
Protocol: as §1, §2

[9] = system: Lactobacillus plantarum ATCC 8014; experiment: Spot-on-lawn antimicrobial activity; format: cell-based; settings: MRS
Protocol: as §1, §2

[10] = system: Listeria monocytogenes Scott A; experiment: Spot-on-lawn antimicrobial activity; format: cell-based; settings: TSBYE
Protocol: as §1, §2

[11] = system: Pseudomonas putida ATCC 45491; experiment: Spot-on-lawn antimicrobial activity; format: cell-based; settings: TSBYE
Protocol: as §1, §2

[12] = system: Salmonella enterica ser. Typhimurium; experiment: Spot-on-lawn antimicrobial activity; format: cell-based; settings: TSBYE
Protocol: as §1, §2

[13] = system: Staphylococcus aureus ATCC 6538; experiment: Spot-on-lawn antimicrobial activity; format: cell-based; settings: TSBYE
Protocol: as §1, §2

[14] = system: Yersinia enterocolitica; experiment: Spot-on-lawn antimicrobial activity; format: cell-based; settings: TSBYE
Protocol: as §1, §2

[15] = system: S. aureus (methycillin-resistant); experiment: Spot-on-lawn antimicrobial activity; format: cell-based, Staphylococcus aureus; settings: TSBYE
Protocol: as §1, §2

[16] = system: Escherichia coli O157:H7; experiment: Antimicrobial spectrum test; format: cell-based; settings: gram-negative pathogens such as Escherichia coli O157:H7
Protocol: as §1, §2

[17] = system: PAE.2325; experiment: MIC, CLSI broth microdilution, Gram-negative clinical isolates; format: cell-based, Pseudomonas aeruginosa
Protocol: (§3) Plates were incubated at 35° C. for 24 h.
(§4) The activity of paenibacterin was also tested against clinical isolates of the following Gram-negative bacterial strains: four strains of the species Pseudomonas aeruginosa (PAE), three strains of the species Acinetobacter baumannii (ABA), two strains of the species Escherichia coli (ECO), and four strains of the species Klebsiella pneumoniae (KPN). Particularly, the strains of Gram-negative bacteria included polymyxin B-resistant (PMB-R) and polymyxin B-sensitive (PMB-S) strains of each above listed species. The MICs were determined using the above described CLSI broth microdilution method, in which the method was performed with both non-binding surface coated (NBS) and polystyrene (PS) 96-well plates (Tables 11 and 12, respectively). The MICs were generally lower in the NBS 96-well plates as compared to the PS 96-well plates.

[18] = system: PAE.999; experiment: as above; format: cell-based, Pseudomonas aeruginosa
Protocol: as §3, §4

[19] = system: polymixin B-sensitive strains of Escherichia coli; experiment: MIC, Table 11; format: cell-based; settings: NBS plates
Protocol: as §3, §4

[20] = system: polymixin B-sensitive strains of Pseudomonas aeruginosa; experiment: MIC, Table 11; format: cell-based; settings: NBS plates
Protocol: as §3, §4

[21] = system: polymyxin B-resistant and polymyxin B-sensitive strains of Acinetobacter baumannii; experiment: MIC, Table 11; format: cell-based; settings: Table 11 (NBS plates)
Protocol: as §3, §4

[22] = system: Enterococcus faecalis; experiment: MIC, summary of Table 13; format: cell-based; settings: Enterococcus faecalis strains of Table 13; NBS plates
Protocol: (§5) The activity of paenibacterin against several strains of Gram-positive and Gram-negative foodborne pathogens is summarized in Table 10. The data is reported as minimum inhibitory concentrations (MIC) as an average of three replicates for paenibacterin against the various listed bacterial strains. […] MICs were determined according to the CLSI broth microdilution method (see, Clinical and Laboratory Standards Institute (CLSI). 2009. Methods for dilution antimicrobial susceptibility tests for bacteria that grow aerobically; approved standard. […]. CLSI, Wayne, Pa.). Briefly, HPLC-purified paenibacterin was dissolved in methanol and diluted to appropriate concentration with cation-adjusted Mueller-Hinton II broth (Difco). Aliquots (25 μl) of serially-diluted paenibacterin was dispensed into wells of a 96-well plate; an equal amount of 1/10 diluted overnight bacterial culture was added to wells. Plates were incubated at 35° C. for 24 h. Cell growth after incubation was examined and determined using a microtiter plate reader at 600 nm. Concentration of paenibacterin is determined based on a molecular weight of 1604 Da.
(§6) The activity of paenibacterin was further tested against clinical isolates of the following Gram-positive bacteria: methicillin-sensitive Staphylococcus aureus (MSSA), methicillin-resistant S. aureus (MRSA), vancomycin-sensitive Enterococcus faecalis, vancomycin-resistant E. faecalis (VRE), Streptococcus pneumoniae, and laboratory derived daptomycin-resistant (DR) MSSA, MRSA, and VRE strains. The MICs were determined using the above described CLSI broth microdilution method, in which the method was performed with non-binding surface coated (NBS) 96-well plates.

[23] = system: Staphylococcus aureus; experiment: MIC, summary of Table 13; format: cell-based; settings: Staphylococcus aureus strains of Table 13; NBS plates
Protocol: as §5, §6

[24] = system: Streptococcus pneumoniae; experiment: MIC, summary of Table 13; format: cell-based; settings: NBS plates
Protocol: as §5, §6

paenibacterin was tested, and the “Antimicrobial activity (AU/ml)” value [1] was 1600 AU/ml, the “Antimicrobial activity (AU/ml)” value [2] was 1600 AU/ml and the “Antimicrobial activity (AU/ml)” value [3] was 200 AU/ml. The “Antimicrobial activity (AU/ml)” value [4] was 0 AU/ml, the “Antimicrobial activity (AU/ml)” value ([4]; listed as Paenibacterin) was “no activity” and the “Antimicrobial activity (AU/ml)” value [5] was 800 AU/ml. For the same substance, the “Antimicrobial activity (AU/ml)” value [6] was 200 AU/ml, the “Antimicrobial activity (AU/ml)” value [7] was 0 AU/ml and the “Antimicrobial activity (AU/ml)” value ([7]; listed as Paenibacterin) was “no activity”. For the same substance, the “Antimicrobial activity (AU/ml)” value [8] was 800 AU/ml, the “Antimicrobial activity (AU/ml)” value [9] was 400 AU/ml and the “Antimicrobial activity (AU/ml)” value [10] was 800 AU/ml. For the same substance, the “Antimicrobial activity (AU/ml)” value [11] was 400 AU/ml, the “Antimicrobial activity (AU/ml)” value [12] was 400 AU/ml and the “Antimicrobial activity (AU/ml)” value [13] was 100 AU/ml. For the same substance, the “Antimicrobial activity (AU/ml)” value [14] was 1600 AU/ml, the “Antimicrobial activity (AU/ml)” value [15] was 100 AU/ml and the “Antimicrobial activity (in words)” value [16] was “good activity”. For the same substance, the “Minimum inhibitory concentration (MIC)” value ([17]; NBS 96-well plates) was 16 µg/mL, the “Minimum inhibitory concentration (MIC)” value ([17]; PS 96-well plates) was 64 µg/mL and the “Minimum inhibitory concentration (MIC)” value ([18]; NBS 96-well plates) was 8 µg/mL. The “Minimum inhibitory concentration (MIC)” value ([18]; PS 96-well plates) was 64 µg/mL, the MIC [19] was 8 µg/mL and the MIC [20] was 8 µg/mL. The MIC [21] was 2 µg/mL, the MIC [22] was 32 to 64 µg/mL and the MIC [23] was 32 to 64 µg/mL. The MIC [24] was 32 to 64 µg/mL.
